Assay results taken from ChEMBL document CHEMBL4152317, “Engineering potent mesotrypsin inhibitors based on the plant-derived cyclic peptide, sunflower trypsin inhibitor-1” (Eur J Med Chem, 2018).
Where a SMILES comes first, the peptide text is derived from it. Bridges are numbered along the chain shown (N, C = ends). [ ]: non-standard residue; d: D form. Bip = N[C@@H](Cc1ccc(-c2ccccc2)cc1)C(=O)O; 2Nal = N[C@@H](Cc1ccc2ccccc2c1)C(=O)O

Assays:
Serine protease 1 [1] = biological target: T1, Serine protease 1 (Homo sapiens, UniProt P07477); assay: Inhibition of human cationic trypsin using Boc-VPR-MCA as substrate measured every 30 secs for 10 mins
T1 sequence (P07477 whole entry): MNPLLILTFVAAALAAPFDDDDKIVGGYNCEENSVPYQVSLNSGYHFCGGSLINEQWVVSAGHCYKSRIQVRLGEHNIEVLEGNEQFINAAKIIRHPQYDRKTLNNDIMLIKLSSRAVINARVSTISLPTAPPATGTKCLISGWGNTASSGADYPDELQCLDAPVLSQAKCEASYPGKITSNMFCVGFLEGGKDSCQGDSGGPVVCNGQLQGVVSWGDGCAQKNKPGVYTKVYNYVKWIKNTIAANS

Trypsin-3 = biological target: T2, Trypsin-3 (Homo sapiens, UniProt P35030); assay: Competitive inhibition of recombinant human mesotrypsin using Z-GPR-MCA as substrate measured every 30 secs for 10 mins
T2 sequence (P35030 whole entry): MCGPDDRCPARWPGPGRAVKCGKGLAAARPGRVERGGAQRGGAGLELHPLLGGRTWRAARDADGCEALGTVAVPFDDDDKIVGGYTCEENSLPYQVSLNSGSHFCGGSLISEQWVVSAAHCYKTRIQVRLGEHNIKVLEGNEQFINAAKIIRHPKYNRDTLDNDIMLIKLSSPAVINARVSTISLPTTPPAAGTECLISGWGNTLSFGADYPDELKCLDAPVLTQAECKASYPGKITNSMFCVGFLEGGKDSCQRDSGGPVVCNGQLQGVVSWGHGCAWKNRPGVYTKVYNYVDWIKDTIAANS

Trypsin-3 (Homo sapiens) = biological target: T3, Trypsin-3 (Homo sapiens) (UniProt P35030); assay: Potency index, ratio of SFTI-1 Ki to test compound Ki for recombinant human mesotrypsin
T3 sequence (whole entry): T2 sequence (P35030 whole entry)

Serine protease 1 [2] = biological target: T1, Serine protease 1; assay: Potency index, ratio of SFTI-1 Ki to test compound Ki for human cationic trypsin
Serine protease 1 [3] = biological target: T4, Serine protease 1 (Bos taurus, UniProt P00760); assay: Inhibition of bovine beta-trypsin using Boc-QAR-MCA as substrate measured every 30 secs for 10 mins
T4 sequence (P00760 whole entry): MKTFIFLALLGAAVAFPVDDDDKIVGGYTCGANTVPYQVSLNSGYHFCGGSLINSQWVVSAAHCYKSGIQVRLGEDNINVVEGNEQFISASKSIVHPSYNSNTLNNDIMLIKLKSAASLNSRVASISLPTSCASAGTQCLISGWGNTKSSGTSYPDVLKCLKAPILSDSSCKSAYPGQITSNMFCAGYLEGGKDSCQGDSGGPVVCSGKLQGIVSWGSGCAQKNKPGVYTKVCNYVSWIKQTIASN

[4] = biological target: T5, Serine protease 1 (Bos taurus) (UniProt P00760); assay: Potency index, ratio of SFTI-1 Ki to test compound Ki for bovine beta-trypsin
T5 sequence (whole entry): T4 sequence (P00760 whole entry)

[5] = biological target: T6, Suppressor of tumorigenicity 14 protein (Homo sapiens) (UniProt Q9Y5Y6); assay: Inhibition of recombinant human matriptase at 50 uM using Boc-QAR-MCA as substrate measured every 30 secs for 10 mins relative to control
T6 sequence (whole entry): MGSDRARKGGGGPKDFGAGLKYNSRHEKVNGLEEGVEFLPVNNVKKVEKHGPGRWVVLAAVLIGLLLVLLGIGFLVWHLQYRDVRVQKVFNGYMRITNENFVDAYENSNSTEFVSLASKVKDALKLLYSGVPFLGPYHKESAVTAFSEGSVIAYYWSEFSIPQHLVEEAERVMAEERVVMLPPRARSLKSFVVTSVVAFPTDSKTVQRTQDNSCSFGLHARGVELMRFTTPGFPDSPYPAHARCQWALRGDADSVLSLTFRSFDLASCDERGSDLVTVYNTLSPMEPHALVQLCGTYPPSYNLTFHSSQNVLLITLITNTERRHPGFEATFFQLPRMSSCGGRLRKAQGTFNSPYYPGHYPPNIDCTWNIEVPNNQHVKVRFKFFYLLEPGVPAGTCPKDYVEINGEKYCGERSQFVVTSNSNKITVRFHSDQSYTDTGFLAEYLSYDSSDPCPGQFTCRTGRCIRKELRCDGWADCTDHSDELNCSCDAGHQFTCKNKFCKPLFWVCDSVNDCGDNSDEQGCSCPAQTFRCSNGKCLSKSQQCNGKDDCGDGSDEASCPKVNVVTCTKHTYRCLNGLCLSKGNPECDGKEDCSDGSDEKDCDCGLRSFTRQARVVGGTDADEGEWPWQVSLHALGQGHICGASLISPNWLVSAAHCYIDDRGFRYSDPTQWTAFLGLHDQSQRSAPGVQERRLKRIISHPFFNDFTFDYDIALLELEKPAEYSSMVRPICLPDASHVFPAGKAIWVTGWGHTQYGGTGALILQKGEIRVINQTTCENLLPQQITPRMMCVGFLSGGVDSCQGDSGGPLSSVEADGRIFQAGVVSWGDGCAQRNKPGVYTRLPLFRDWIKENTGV

Prothrombin [6] = biological target: T7, Prothrombin (Homo sapiens, UniProt P00734); assay: Inhibition of human alpha thrombin at 50 uM using Boc-VPR-MCA as substrate measured every 30 secs for 10 mins relative to control
[7] = biological target: Chymotrypsinogen A (Bos taurus) (UniProt P00766); assay: Inhibition of bovine alpha-chymotrypsin at 50 uM using Suc-AAPF-MCA as substrate measured every 30 secs for 10 mins relative to control
[8] = biological target: T8, Suppressor of tumorigenicity 14 protein (Homo sapiens, UniProt Q9Y5Y6); assay: Inhibition of recombinant human matriptase using Boc-QAR-MCA as substrate measured every 30 secs for 10 mins
T8 sequence (Q9Y5Y6 whole entry): T6 sequence (whole entry)

Prothrombin [9] = biological target: T7, Prothrombin; assay: Inhibition of human alpha thrombin using Boc-VPR-MCA as substrate measured every 30 secs for 10 mins
Chymotrypsinogen A = Chymotrypsinogen A (Bos taurus, UniProt P00766); assay: Inhibition of bovine alpha-chymotrypsin using Suc-AAPF-MCA as substrate measured every 30 secs for 10 mins

SMILES | Ki (Serine protease 1 [1]) [nM] | Ki (Trypsin-3) [nM] | Ratio Ki (Trypsin-3 (Homo sapiens)) | Ratio Ki (Serine protease 1 [2]) | Ki (Serine protease 1 [3]) [nM] | Ratio Ki [4] | inhibition [5] [%] | inhibition (Prothrombin [6]) [%] | inhibition [7] [%] | IC50 [8] [nM] | IC50 (Prothrombin [9]) [nM] | IC50 (Chymotrypsinogen A) [nM]
CC[C@H](C)[C@@H]1NC(=O)[C@@H]2CCCN2C(=O)[C@@H]2CCCN2C(=O)[C@H](Cc2ccccc2)NC(=O)[C@H](CO)NC(=O)[C@H](CCCCN)NC(=O)[C@H]([C@@H](C)O)NC(=O)[C@@H]2CSSC[C@H](NC1=O)C(=O)N[C@@H](Cc1ccccc1)C(=O)N1CCC[C@H]1C(=O)N[C@@H](CC(=O)O)C(=O)NCC(=O)N[C@@H](CCCNC(=N)N)C(=O)N2 (cyclo(CFPDGRCTKSFPPI); disulfide 1-7) |  | 45 | 110 |  |  |  |  |  |  |  |  | 
CC[C@H](C)[C@@H]1NC(=O)[C@@H]2CCCN2C(=O)[C@@H]2CCCN2C(=O)[C@H](CO)NC(=O)[C@H](CO)NC(=O)[C@H](CCCCN)NC(=O)[C@H]([C@@H](C)O)NC(=O)[C@@H]2CSSC[C@H](NC1=O)C(=O)N[C@@H](Cc1ccccc1)C(=O)N1CCC[C@H]1C(=O)N[C@@H](CC(=O)O)C(=O)NCC(=O)N[C@@H](CCCNC(=N)N)C(=O)N2 (cyclo(CFPDGRCTKSSPPI); disulfide 1-7) |  | 335 | 15 |  |  |  |  |  |  |  |  | 
CC[C@H](C)[C@@H]1NC(=O)[C@@H]2CCCN2C(=O)[C@@H]2CCCN2C(=O)CNC(=O)[C@H](CO)NC(=O)[C@H](CCCNC(=N)N)NC(=O)[C@H]([C@@H](C)O)NC(=O)[C@@H]2CSSC[C@H](NC1=O)C(=O)N[C@@H](Cc1ccccc1)C(=O)N1CCC[C@H]1C(=O)N[C@@H](CC(=O)O)C(=O)NCC(=O)N[C@@H](CCCNC(=N)N)C(=O)N2 (cyclo(CFPDGRCTRSGPPI); disulfide 1-7) | 100 | 369 | 13 | 3330 | 196 | 24500 |  |  |  |  |  | 
CC[C@H](C)[C@@H]1NC(=O)[C@@H]2CCCN2C(=O)[C@@H]2CCCN2C(=O)[C@H](Cc2ccc(-c3ccccc3)cc2)NC(=O)[C@H](CO)NC(=O)[C@H](CCCCN)NC(=O)[C@H]([C@@H](C)O)NC(=O)[C@@H]2CSSC[C@H](NC1=O)C(=O)N[C@@H](Cc1ccccc1)C(=O)N1CCC[C@H]1C(=O)N[C@@H](CC(=O)O)C(=O)NCC(=O)N[C@@H](CCCNC(=N)N)C(=O)N2 (cyclo([Bip]PPICFPDGRCTKS); disulfide 5-11) | 0.76 | 35 | 142 | 25 | 0.062 | 8 |  |  |  |  |  | 
CC[C@H](C)[C@@H]1NC(=O)[C@@H]2CCCN2C(=O)[C@@H]2CCCN2C(=O)[C@H](Cc2ccc(-c3ccccc3)cc2)NC(=O)[C@H](CO)NC(=O)[C@H](CCCNC(=N)N)NC(=O)[C@H]([C@@H](C)O)NC(=O)[C@@H]2CSSC[C@H](NC1=O)C(=O)N[C@@H](Cc1ccccc1)C(=O)N1CCC[C@H]1C(=O)N[C@@H](CC(=O)O)C(=O)NCC(=O)N[C@@H](CCCNC(=N)N)C(=O)N2 (cyclo([Bip]PPICFPDGRCTRS); disulfide 5-11) | 1.9 | 28 | 177 | 63 | 0.17 | 21 |  |  |  |  |  | 

Further lines, results first:

Ki (Serine protease 1 [1]) [nM] | Ki (Trypsin-3) [nM] | Ratio Ki (Trypsin-3 (Homo sapiens)) | Ratio Ki (Serine protease 1 [2]) | Ki (Serine protease 1 [3]) [nM] | Ratio Ki [4] | inhibition [5] [%] | inhibition (Prothrombin [6]) [%] | inhibition [7] [%] | IC50 [8] [nM] | IC50 (Prothrombin [9]) [nM] | IC50 (Chymotrypsinogen A) [nM] | SMILES
0.03 |  |  |  |  |  |  |  |  |  |  |  | CC[C@H](C)[C@@H]1NC(=O)[C@@H]2CCCN2C(=O)[C@@H]2CCCN2C(=O)[C@H]([C@@H](C)CC)NC(=O)[C@H](CO)NC(=O)[C@H](CCCCN)NC(=O)[C@H]([C@@H](C)O)NC(=O)[C@@H]2CSSC[C@H](NC1=O)C(=O)N[C@@H](Cc1ccccc1)C(=O)N1CCC[C@H]1C(=O)N[C@@H](CC(=O)O)C(=O)NCC(=O)N[C@@H](CCCNC(=N)N)C(=O)N2
 | 402 | 12 |  |  |  |  |  |  |  |  |  | CC[C@H](C)[C@@H]1NC(=O)[C@@H]2CCCN2C(=O)[C@@H]2CCCN2C(=O)[C@H](CC(=O)O)NC(=O)[C@H](CO)NC(=O)[C@H](CCCCN)NC(=O)[C@H]([C@@H](C)O)NC(=O)[C@@H]2CSSC[C@H](NC1=O)C(=O)N[C@@H](Cc1ccccc1)C(=O)N1CCC[C@H]1C(=O)N[C@@H](CC(=O)O)C(=O)NCC(=O)N[C@@H](CCCNC(=N)N)C(=O)N2 (cyclo(CFPDGRCTKSDPPI); disulfide 1-7)
49 | 134 | 37 | 1630 | 81 | 10100 | < 50 | < 50 | < 50 | > 50000 | > 50000 | > 50000 | CC[C@H](C)[C@@H]1NC(=O)[C@@H]2CCCN2C(=O)[C@@H]2CCCN2C(=O)CNC(=O)[C@H](CO)NC(=O)[C@H](CCCCN)NC(=O)[C@H]([C@@H](C)O)NC(=O)[C@@H]2CSSC[C@H](NC1=O)C(=O)N[C@@H](Cc1ccccc1)C(=O)N1CCC[C@H]1C(=O)N[C@@H](CC(=O)O)C(=O)NCC(=O)N[C@@H](CCCNC(=N)N)C(=O)N2 (cyclo(CFPDGRCTKSGPPI); disulfide 1-7)
0.87 | 26 | 191 | 29 | 0.046 | 6 |  |  |  |  |  |  | CC[C@H](C)[C@@H]1NC(=O)[C@@H]2CCCN2C(=O)[C@@H]2CCCN2C(=O)[C@H](Cc2ccc3ccccc3c2)NC(=O)[C@H](CO)NC(=O)[C@H](CCCCN)NC(=O)[C@H]([C@@H](C)O)NC(=O)[C@@H]2CSSC[C@H](NC1=O)C(=O)N[C@@H](Cc1ccccc1)C(=O)N1CCC[C@H]1C(=O)N[C@@H](CC(=O)O)C(=O)NCC(=O)N[C@@H](CCCNC(=N)N)C(=O)N2 (cyclo([2Nal]PPICFPDGRCTKS); disulfide 5-11)
2.6 | 38 | 131 | 87 | 0.23 | 29 |  |  |  |  |  |  | CC[C@H](C)[C@@H]1NC(=O)[C@@H]2CCCN2C(=O)[C@@H]2CCCN2C(=O)[C@H](Cc2ccc3ccccc3c2)NC(=O)[C@H](CO)NC(=O)[C@H](CCCNC(=N)N)NC(=O)[C@H]([C@@H](C)O)NC(=O)[C@@H]2CSSC[C@H](NC1=O)C(=O)N[C@@H](Cc1ccccc1)C(=O)N1CCC[C@H]1C(=O)N[C@@H](CC(=O)O)C(=O)NCC(=O)N[C@@H](CCCNC(=N)N)C(=O)N2 (cyclo([2Nal]PPICFPDGRCTRS); disulfide 5-11)
